Source: patent EP4790066A1, “GLP-1R/GIPR/GCGR TRIPLE AGONIST ANALOGUE AND USE THEREOF” (Shenzhen Bay Laboratory, priority 2023, dated 2025)

Columns and labels:
Type in all cases: cell-based
[1] = biological target: T1, GCGR (Homo sapiens, UniProt P47871); experiment: cAMP method (HTRF cAMP detection kit), HEK293/pGM-CREB-L-Luc/GCG pool; details: read-out: EC50 (pM) for each receptor GCGR
T1 construct: expressed in transfected cells
Experimental: (§1) 2. Insulinotropic analogues can bind to target receptors on the cell membrane, activate the receptors, and induce release. The activity of the test substance can be determined using the HTRF method with a cAMP detection kit. Therefore, the cAMP method can be used to detect the target peptide derivatives (or polypeptide derivatives, i.e., TG1-TG86) prepared in Example 1 and Example 2. […] The test cell line was selected, treated with cAMP-specific trypsin for digestion. 3 mL of serum-free DMEM culture medium was added, and the cells were pipetted, resuspended, and counted. 5 µL of IBMX (prepared with serum-free DMEM medium, 0.5 mM) and test cells (5 µL/7500 cells/well) were added in a 384-well plate sequentially. The plate was incubated at 37°C under 5% CO2 for 30 min, followed by the addition of cAMP-d2 (5 µL, 1x) and Anti-cAMP-Cryptate (5 µL, 1x). The mixture was kept at room temperature for 1 h, after which the HTRF value was measured using a chemiluminescent microplate reader, and the determination result was recorded. […] Table 4: EC50 values for target peptide derivatives

[2] = biological target: T2, GIPR (Homo sapiens, UniProt P48546); experiment: CreLuc method (CRE-luciferase reporter), HEK293/pGM-CREB-L-Luc/GIPR pool; details: 6 h incubation, read-out: EC50 (pM) for each receptor GIPR
T2 construct: expressed in transfected cells
T2 sequence (P48546 22-466): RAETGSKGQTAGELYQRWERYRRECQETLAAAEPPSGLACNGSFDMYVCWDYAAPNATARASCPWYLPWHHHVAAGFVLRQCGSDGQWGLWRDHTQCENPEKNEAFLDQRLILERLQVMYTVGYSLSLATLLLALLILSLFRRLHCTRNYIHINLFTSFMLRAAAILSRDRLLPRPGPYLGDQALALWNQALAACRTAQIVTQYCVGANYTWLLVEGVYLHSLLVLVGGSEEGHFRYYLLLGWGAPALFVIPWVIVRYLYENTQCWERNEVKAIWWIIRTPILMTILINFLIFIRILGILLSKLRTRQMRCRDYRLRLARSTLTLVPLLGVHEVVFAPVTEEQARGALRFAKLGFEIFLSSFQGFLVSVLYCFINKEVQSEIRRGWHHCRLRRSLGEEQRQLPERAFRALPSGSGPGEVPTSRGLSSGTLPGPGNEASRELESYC
Procedure, shortened: (§2)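 Stable HEK293 pools co-expressing each receptor with a CRE-luciferase reporter were plated at 20,000 cells/well in freestyle medium and treated with compound dilution series for 6 h at 37 °C. Luminescence was read with ONE-GLO to derive EC50.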

[3] = biological target: T2, GIPR; experiment: cAMP method (HTRF cAMP detection kit), HEK293/pGM-CREB-L-Luc/GIP pool; details: read-out: EC50 (pM) for each receptor GIPR
Experimental: as §1

[4] = biological target: T1, GCGR; experiment: CreLuc method (CRE-luciferase reporter), 293HEK/pGM-CREB-L-Luc/GCGR pool; details: 6 h incubation, read-out: EC50 (pM) for each receptor GCGR
Procedure, shortened: as §2

[5] = biological target: T3, GLP-1R (Homo sapiens, UniProt P43220); experiment: CreLuc method (CRE-luciferase reporter), HEK293/pGM-CREB-L-Luc/GLP-1R pool; details: 6 h incubation, read-out: EC50 (pM) for each receptor GLP-1R
T3 construct: expressed in transfected cells
Procedure, shortened: as §2

[6] = biological target: T3, GLP-1R; experiment: cAMP method (HTRF cAMP detection kit), HEK293/pGM-CREB-L-Luc/GLP-1 pool; details: read-out: EC50 (pM) for each receptor GLP-1R
Experimental: as §1

T3 sequence (P43220 24-463, species assumed): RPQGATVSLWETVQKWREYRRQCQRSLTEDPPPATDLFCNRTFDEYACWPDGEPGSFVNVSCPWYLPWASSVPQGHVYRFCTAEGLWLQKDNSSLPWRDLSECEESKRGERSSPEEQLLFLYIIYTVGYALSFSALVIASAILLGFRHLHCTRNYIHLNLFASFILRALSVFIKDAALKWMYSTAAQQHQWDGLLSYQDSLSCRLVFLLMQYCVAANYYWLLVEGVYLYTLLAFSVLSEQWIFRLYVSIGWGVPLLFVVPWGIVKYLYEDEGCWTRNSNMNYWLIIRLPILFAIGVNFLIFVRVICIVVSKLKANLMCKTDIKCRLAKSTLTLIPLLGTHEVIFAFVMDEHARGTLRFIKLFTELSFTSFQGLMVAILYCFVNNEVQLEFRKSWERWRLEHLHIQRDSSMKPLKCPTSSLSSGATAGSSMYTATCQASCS
T1 sequence (P47871 26-477, species assumed): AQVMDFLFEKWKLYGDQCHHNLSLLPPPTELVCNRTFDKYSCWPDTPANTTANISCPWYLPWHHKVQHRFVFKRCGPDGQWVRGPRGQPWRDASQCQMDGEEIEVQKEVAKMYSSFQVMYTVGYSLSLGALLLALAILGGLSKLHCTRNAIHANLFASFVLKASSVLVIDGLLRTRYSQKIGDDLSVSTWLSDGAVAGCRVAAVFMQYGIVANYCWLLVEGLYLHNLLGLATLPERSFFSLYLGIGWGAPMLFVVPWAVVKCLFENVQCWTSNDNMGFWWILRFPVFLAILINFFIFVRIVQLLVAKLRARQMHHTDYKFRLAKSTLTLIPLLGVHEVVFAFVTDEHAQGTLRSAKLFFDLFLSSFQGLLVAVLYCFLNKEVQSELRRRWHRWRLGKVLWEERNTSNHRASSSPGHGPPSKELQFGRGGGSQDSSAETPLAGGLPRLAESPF

Row | SMILES | EC50 [1] [pM] | EC50 [2] [pM] | EC50 [3] [pM] | EC50 [4] [pM] | EC50 [5] [pM] | EC50 [6] [pM]
1 | CC[C@H](C)[C@@H]1NC(=O)[C@H](Cc2ccccc2)NC(=O)[C@@H](NC(=O)C(C)(C)NC(=O)[C@H](CCC(N)=O)NC(=O)[C@H](C)NC(=O)[C@H](CCCCNC(C)=O)NC(=O)[C@H](CCCCN)NC(=O)[C@H](CC(=O)O)NC(=O)[C@H](CC(C)C)NC(=O)[C@](C)(CC(C)C)NC(=O)[C@@H](NC(=O)[C@H](CO)NC(=O)[C@H](Cc2ccc(O)cc2)NC(=O)[C@H](CC(=O)O)NC(=O)[C@H](CO)NC(=O)[C@@H](NC(=O)[C@H](Cc2ccccc2)NC(=O)[C@@H](NC(=O)CNC(=O)[C@H](CCC(N)=O)NC(=O)C(C)(C)NC(=O)[C@@H](N)Cc2c[nH]cn2)[C@@H](C)O)[C@@H](C)O)[C@@H](C)CC)CSCC(=O)NCCN(C(=O)CCC(=O)NCCOCCOCC(=O)NCCOCCOCC(=O)NCCCC[C@H](NC(=O)CCCCCCCCCCCCCCCCCCC(=O)O)C(=O)O)CCNC(=O)CSC[C@@H](C(=O)NCC(=O)NCC(=O)N2CCC[C@H]2C(=O)N[C@@H](CO)C(=O)N[C@@H](CO)C(=O)NCC(=O)N[C@@H](C)C(=O)N2CCC[C@H]2C(=O)N2CCC[C@H]2C(=O)N2CCC[C@H]2C(=O)N[C@@H](CO)C(N)=O)NC(=O)[C@H](CC(C)C)NC(=O)[C@H](CC(C)C)NC(=O)[C@H](Cc2ccc(O)cc2)NC(=O)[C@H](CCC(=O)O)NC1=O [TG18] | 94.4 | 25.9 | 1.7 | 802 | 66.9 | 1.4
2 | CC[C@H](C)[C@@H]1NC(=O)[C@H](Cc2ccccc2)NC(=O)[C@@H](NC(=O)C(C)(C)NC(=O)[C@H](CCC(N)=O)NC(=O)[C@H](C)NC(=O)[C@H](CCCCNC(C)=O)NC(=O)[C@H](CCCCN)NC(=O)[C@H](CC(=O)O)NC(=O)[C@H](CC(C)C)NC(=O)[C@](C)(CC(C)C)NC(=O)[C@@H](NC(=O)[C@H](CO)NC(=O)[C@H](Cc2ccc(O)cc2)NC(=O)[C@H](CC(=O)O)NC(=O)[C@H](CO)NC(=O)[C@@H](NC(=O)[C@H](Cc2ccccc2)NC(=O)[C@@H](NC(=O)CNC(=O)[C@H](CCC(N)=O)NC(=O)C(C)(C)NC(=O)[C@@H](N)Cc2ccc(O)cc2)[C@@H](C)O)[C@@H](C)O)[C@@H](C)CC)CSCC(=O)NCCN(C(=O)CCC(=O)NCCOCCOCC(=O)NCCOCCOCC(=O)NCCCC[C@H](NC(=O)CCCCCCCCCCCCCCCCCCC(=O)O)C(=O)O)CCNC(=O)CSC[C@@H](C(=O)NCC(=O)NCC(=O)N2CCC[C@H]2C(=O)N[C@@H](CO)C(=O)N[C@@H](CO)C(=O)NCC(=O)N[C@@H](C)C(=O)N2CCC[C@H]2C(=O)N2CCC[C@H]2C(=O)N2CCC[C@H]2C(=O)N[C@@H](CO)C(N)=O)NC(=O)[C@H](CC(C)C)NC(=O)[C@H](CC(C)C)NC(=O)[C@H](Cc2ccc(O)cc2)NC(=O)[C@H](CCC(=O)O)NC1=O [TG15] | 40.3 | 85.6 | 3.3 | 329 | 116 | 1.9
3 | CC[C@H](C)[C@@H]1NC(=O)[C@H](Cc2ccccc2)NC(=O)[C@@H](NC(=O)C(C)(C)NC(=O)[C@H](CCC(N)=O)NC(=O)[C@H](C)NC(=O)[C@H](CCC(N)=O)NC(=O)[C@H](CCCCN)NC(=O)[C@H](CC(=O)O)NC(=O)[C@H](CC(C)C)NC(=O)[C@](C)(CC(C)C)NC(=O)[C@@H](NC(=O)[C@H](CO)NC(=O)[C@H](Cc2ccc(O)cc2)NC(=O)[C@H](CC(=O)O)NC(=O)[C@H](CO)NC(=O)[C@@H](NC(=O)[C@H](Cc2ccccc2)NC(=O)[C@@H](NC(=O)CNC(=O)[C@H](CCC(N)=O)NC(=O)C(C)(C)NC(=O)[C@@H](N)Cc2ccc(O)cc2)[C@@H](C)O)[C@@H](C)O)[C@@H](C)CC)CSCC(=O)NCCN(C(=O)CCC(=O)NCCOCCOCC(=O)NCCOCCOCC(=O)NCCCC[C@H](NC(=O)CCCCCCCCCCCCCCCCCCC(=O)O)C(=O)O)CCNC(=O)CSC[C@@H](C(=O)NCC(=O)NCC(=O)N2CCC[C@H]2C(=O)N[C@@H](CO)C(=O)N[C@@H](CO)C(=O)NCC(=O)N[C@@H](C)C(=O)N2CCC[C@H]2C(=O)N2CCC[C@H]2C(=O)N2CCC[C@H]2C(=O)N[C@@H](CO)C(N)=O)NC(=O)[C@H](CC(C)C)NC(=O)[C@H](CC(C)C)NC(=O)[C@H](Cc2ccc(O)cc2)NC(=O)[C@H](CCC(=O)O)NC1=O [TG30] | 28.7 | 45.3 | 3.2 | 347 | 47.8 | 2.5
4 | CC(C)C[C@H](NC(=O)[C@H](CC(C)C)NC(=O)[C@H](Cc1c[nH]c2ccccc12)NC(=O)[C@@H]1CSCC(=O)NCCN(C(=O)CCC(=O)NCCOCCOCC(=O)NCCOCCOCC(=O)NCCCC[C@H](NC(=O)CCCCCCCCCCCCCCCCCCC(=O)O)C(=O)O)CCNC(=O)CSC[C@H](NC(=O)[C@H](CCCCN)NC(=O)[C@H](CC(=O)O)NC(=O)[C@H](CC(C)C)NC(=O)[C@H](Cc2ccc(O)cc2)NC(=O)[C@H](CCCCN)NC(=O)[C@H](CO)NC(=O)[C@H](Cc2ccc(O)cc2)NC(=O)[C@H](CC(=O)O)NC(=O)[C@H](CO)NC(=O)[C@@H](NC(=O)[C@H](Cc2ccccc2)NC(=O)[C@@H](NC(=O)CNC(=O)[C@H](Cc2c[nH]cn2)NC(=O)C(C)(C)NC(=O)[C@@H](N)Cc2c[nH]cn2)[C@@H](C)O)[C@@H](C)O)C(=O)N[C@@H](Cc2ccc(O)cc2)C(=O)N[C@@H](C)C(=O)N[C@@H](CCC(N)=O)C(=O)N[C@@H](CC(=O)O)C(=O)N[C@@H](Cc2ccccc2)C(=O)N[C@@H](C(C)C)C(=O)N1)C(=O)N[C@@H](CCC(=O)O)C(=O)NCC(=O)NCC(=O)N1CCC[C@H]1C(=O)N[C@@H](CO)C(=O)N[C@@H](CO)C(=O)NCC(=O)N[C@@H](C)C(=O)N1CCC[C@H]1C(=O)N1CCC[C@H]1C(=O)N1CCC[C@H]1C(=O)N[C@@H](CO)C(N)=O [TG10] | 8.5 | 368 | 9.7 | 149 | 359 | 2.5
5 | CC[C@H](C)[C@@H]1NC(=O)[C@H](Cc2ccccc2)NC(=O)[C@H](C)NC(=O)C(C)(C)NC(=O)[C@H](CCC(N)=O)NC(=O)[C@H](C)NC(=O)[C@@H](NC(=O)[C@H](CCCCN)NC(=O)[C@H](CC(=O)O)NC(=O)[C@H](CC(C)C)NC(=O)[C@H](CC(C)C)NC(=O)[C@@H](NC(=O)[C@H](CO)NC(=O)[C@H](Cc2ccc(O)cc2)NC(=O)[C@H](CC(=O)O)NC(=O)[C@H](CO)NC(=O)[C@@H](NC(=O)[C@H](Cc2ccccc2)NC(=O)[C@@H](NC(=O)CNC(=O)[C@H](CCC(N)=O)NC(=O)C(C)(C)NC(=O)[C@@H](N)Cc2ccc(O)cc2)[C@@H](C)O)[C@@H](C)O)[C@@H](C)CC)CSCC(=O)NCCN(C(=O)CCC(=O)NCCOCCOCC(=O)NCCOCCOCC(=O)NCCCC[C@H](NC(=O)CCCCCCCCCCCCCCCCCCC(=O)O)C(=O)O)CCNC(=O)CSC[C@@H](C(=O)N[C@@H](Cc2ccc(O)cc2)C(=O)N[C@@H](CC(C)C)C(=O)N[C@@H](CC(C)C)C(=O)N[C@@H](CCC(=O)O)C(=O)NCC(=O)NCC(=O)N2CCC[C@H]2C(=O)N[C@@H](CO)C(=O)N[C@@H](CO)C(=O)NCC(=O)N[C@@H](C)C(=O)N2CCC[C@H]2C(=O)N2CCC[C@H]2C(=O)N2CCC[C@H]2C(=O)N[C@@H](CO)C(N)=O)NC1=O [TG12] | 40.3 | 66.6 | 12.1 | 325 | 205 | 5.8
